Data taken from paper PMC5642509, “A small-molecule inhibitor targeting the AURKC–IκBα interaction decreases transformed growth of MDA-MB-231 breast cancer cells” (Oncotarget, 2017).
Blank lines part the entries; values can stand above or below the molecule they belong to.

Experiments:
Aurora C (AURKC) = biological target: T1, Aurora C (AURKC) (Homo sapiens, UniProt Q9UQB9); experiment: ATP-competition kinase assay, active AURKC and purified IκBα, pS32 immunoblot (GSK1070916 […], various ATP); format: biochemical
T1 construct: recombinant active AURKC
T1 sequence (Q9UQB9 1-309): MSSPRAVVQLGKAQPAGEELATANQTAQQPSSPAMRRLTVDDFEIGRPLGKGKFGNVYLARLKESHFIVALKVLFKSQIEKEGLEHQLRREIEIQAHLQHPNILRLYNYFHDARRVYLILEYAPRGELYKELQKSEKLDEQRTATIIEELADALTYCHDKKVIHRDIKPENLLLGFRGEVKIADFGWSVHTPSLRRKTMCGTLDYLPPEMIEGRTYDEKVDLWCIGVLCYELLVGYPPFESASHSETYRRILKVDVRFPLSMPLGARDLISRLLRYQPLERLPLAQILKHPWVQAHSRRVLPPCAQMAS

pBIND-AURKC = biological target: T2, pBIND-AURKC (human, UniProt Q9UQB9 1-309); experiment: two-hybrid; mammalian two-hybrid: pBIND-AURKC, pACT-IκBα and pG5-luciferase transfected in equal amounts; luciferase read-out normalised against the control; details: partners not purified
T2 construct: Aurora C kinase (AURKC); also called pM-BD-pAURKC; source: mammalian two-hybrid fusion, transfected cells
T2 sequence (looked up): T1 sequence (Q9UQB9 1-309)

Molecule: CCn1cc(-c2ccnc3[nH]c(-c4cccc(CN(C)C)c4)cc23)c(-c2ccc(NC(=O)N(C)C)cc2)n1 [GSK1070916]
- ATP-competition kinase assay, active AURKC and purified IκBα, pS32 immunoblot (G) (Aurora C (AURKC)): the inhibitory activity of GSK1070916 was inversely proportional to the concentration of ATP (Figure 6E and 6F)

- fold luciferase activity over the Bind-AURKC vector (pBIND-AURKC): ~2.7 fold
B1: pACT-IκBα (natural protein, human, UniProt P25963 1-317, looked up)
chain: MFQAAERPQEWAMEGPRDGLKKERLLDDRHDSGLDSMKDEEYEQMVKELQEIRLEPQEVPRGSEPWKQQLTEDGDSFLHLAIIHEEKALTMEVIRQVKGDLAFLNFQNNLQQTPLHLAVITNQPEIAEALLGAGCDPELRDFRGNTPLHLACEQGCLASVGVLTQSCTTPHLHSILKATNYNGHTCLHLASIHGYLGIVELLVSLGADVNAQEPCNGRTALHLAVDLQNPDLVSLLLKCGADVNRVTYQGYSPYQLTWGRPSTRIQQQLGQLTLENLQMLPESEDEESYDTESEFTEFTEDELPYDDCVFGGQRLTL
notes: IκBα; also called pVP-IκBα; source: mammalian two-hybrid fusion, transfected cells
